Data taken from patent publication US8372872B2, “Methods for concomitant treatment of theophylline and febuxostat” (Takeda Pharmaceuticals U.S.A., Inc., priority 2010, dated 2013).

Tests used:
clinical = details: both, human, in vivo, po
[1] = adults; cited from earlier work
[2] = patients co-administered allopurinol and theophylline; cited from earlier work
[3] = febuxostat vs placebo regimen, in words

Cc1nc(-c2ccc(OCC(C)C)c(C#N)c2)sc1C(=O)O [Febuxostat]
maximum observed theophylline concentration (Cmax) and exposure to theophylline (AUC), febuxostat vs placebo (in words): comparable

Cn1c(=O)c2[nH]cnc2n(C)c1=O [Theophylline, 1,3-dimethyl-7H-purine-2,6-dione]
Tmax (clinical): 7 to 9 h
Vd/F (clinical): 58.2 L
half-life (clinical): 9.69 h
biological half-life [1]: about 6 hours
point estimates for theophylline Cmax, AUC(0-tlqc) and AUC(0-inf) (both, human, in vivo): ~100%
estimated mean T1/2, CL/F and Vz/F of theophylline, compared between regimens [3]: generally similar
mean AUC(0-inf) of theophylline, compared between regimens [3]: comparable

Oc1ncnc2[nH]ncc12 [allopurinol]
decrease of theophylline clearance [2]: 21%
increase of theophylline AUC [2]: up to 27%
increase of theophylline half-life [2]: approximately 25%
